Measurements reported in patent publication US20250360187A1, “HEPCIDIN MIMETICS FOR TREATMENT OF SICKLE CELL DISEASE” (Protagonist Therapeutics, Inc., priority 2022, published 2025).
Entries after “also recorded” stand apart in the source; their conditions may differ. Where a SMILES comes first, the peptide text is derived from it.

Test system: Townes SCD mice
Assay: Efficacy study of hepcidin mimetics in a mouse model of sickle cell disease (CBC, serum hemolysis biomarkers, spleen and liver weights)
Assay type: in vivo
Conditions: for % Retics / Abs Retics / HCT / HGB / MCH / MCHC / MCV / RBC / LDH / Total bilirubin: 4 weeks, mean ± SD; for LDH / Total bilirubin: serum
Method: Compound 46, a hepcidin mimetic, was administered subcutaneously at 1.0 mg/kg (group 3, N=9) or 2.5 mg/kg (group 4, N=9) in Townes SCD mice. 36 Townes SCD and 6 129S1/SvlmJ (wild-type), female mice, 5 weeks old upon delivery. A control group of wild-type mice (groups 1, N=6) was treated with vehicle as well as another SCD mice (group 2, N=9). All mice were dosed three times per week (TIW). All mice were maintained on an iron-adjusted diet (TD.140258, 35 ppm iron) throughout the study. Collections and necropsies were performed 24 hours post-last dose of compound or vehicle. After 4 weeks on study, animals from each group were euthanized, EDTA whole blood collected for CBC and serum was collected for hemolysis biomarker analysis. Spleens and livers were weighed at terminus. Liver, spleen, kidney, heart and brain were collected for future analysis. Serum and urine were collected to analyze chemistry markers, such as bilirubin, LDH (lactate dehydrogenase), haptoglobin, urine creatinine, urine total protein and urine urea nitrogen.
As shown in FIG. 4A and FIG. 4B, reticulocytes were counted both with the automated analyzer as well as manually from a new methylene blue stained blood smear by counting the number of positive stained cells encountered in 500 erythrocytes and calculating the percentage.

[1] = SCD mice, compared to vehicle, across doses
[2] = Townes SCD mice, Dose 1 (1.0 mg/kg s.c. TIW)
[3] = Townes SCD mice, Dose 2.5 (2.5 mg/kg s.c. TIW)

## CCCCCCCCCCCCCCCC(=O)N[C@@H](CCC(=O)NCCCC[C@@H]1NC(=O)[C@H]([C@@H](C)CC)NC(=O)[C@@H](NC(=O)[C@@H]2CCCN2C(=O)[C@H](Cc2ccccc2)NC(=O)[C@H](Cc2cnc[nH]2)NC(=O)[C@@H](NC(=O)[C@H](CCC(=O)O)NC(=O)CC(C)C)[C@@H](C)O)CSSC[C@@H](C(=O)N[C@@H](CCCCN)C(N)=O)NC(=O)CNC(=O)[C@H](CCCCN)NC(=O)[C@H](CO)NC(=O)[C@H](CCCNC(=N)N)NC(=O)[C@@H]2CCCN2C(=O)[C@H](CCC(=O)O)NC(=O)[C@H](Cc2ccccc2)NC1=O)C(=O)O [Compound 46, Isovaleric_Acid-ETHFPCI(K(IsoGlu_Palm))FEPRSKGCK-NH2] (HELM PEPTIDE1{[CC(C)CC(=O)[*:2]].E.T.H.F.P.C.I.K.F.E.P.R.S.K.G.C.K.[am]}|PEPTIDE2{[CCCCCCCCCCCCCCCC(=O)[*:2]].[gGlu]}$PEPTIDE1,PEPTIDE2,9:R3-2:R2|PEPTIDE1,PEPTIDE1,7:R3-17:R3$$$V2.0)
SCD mice, 2.5 mg/kg dose
  RBC count (in words): significantly reduced
SCD mice, 2.5 mg/kg dose, compared to vehicle control
  Percent of reticulocytes (in words): decreased percent of reticulocytes significantly
SCD mice, 2.5 mg/kg, compared to vehicle control
  Mean corpuscular hemoglobin concentration (MCHC) (in words): significant increase in MCHC
SCD mice, across doses
  Hematocrit (HCT) (in words): significant reduction of HCT in a dose dependent manner
  Lymphocyte count (in words): significant WBC and lymphocyte reduction in a dose dependent manner; also recorded: alleviated elevated white blood cell (WBC) and lymphocytes counts
  Neutrophil count (in words): significantly decreased neutrophil count in a dose dependent manner; also recorded: alleviated elevated neutrophil and monocyte counts
  Serum lactate dehydrogenase (LDH) (in words): significantly reduced both parameters in a dose dependent manner
  Serum total bilirubin (in words): significantly reduced both parameters in a dose dependent manner
  White blood cell (WBC) count (in words): significant WBC and lymphocyte reduction in a dose dependent manner; also recorded: alleviated elevated white blood cell (WBC) and lymphocytes counts
SCD mice, across doses, compared to the vehicle group
  Mean corpuscular volume (MCV) (in words): significant reduction of MCV in a dose dependent manner
SCD mice, all three dose groups
  Hgb level (in words): significantly reduced in all three dose groups
SCD mice, compared to vehicle control
  Mean corpuscular hemoglobin (MCH) (in words): significant reduction in MCH
[1]
  Liver to body weight ratios (in words): significantly lower in a dose dependent manner
  Liver weight / liver size (in words): significantly lower in a dose dependent manner; also recorded: reduces liver size
  Spleen to body weight ratios (in words): significantly and dose-dependently lower
  Spleen weights / spleen size (in words): significantly and dose-dependently lower; also recorded: reduces spleen size
Townes SCD mice
  Monocyte count (in words): alleviated elevated neutrophil and monocyte counts
[2]
  % Retics: 65.78%
  Abs Retics: 2612 K/uL
  HCT: 29.62%
  HGB: 5.89 g/dL
  MCH: 9.89 pg
  MCHC: 19.82 g/dL
  MCV: 50.11 fL
  RBC: 5.94 M/uL
  LDH: 610.6 U/L
  Total bilirubin: 2.16 mg/dL
[3]
  % Retics: 50.33%
  Abs Retics: 1195 K/uL
  HCT: 16.27%
  HGB: 4.39 g/dL
  MCH: 9.82 pg
  MCHC: 23.22 g/dL
  MCV: 42.56 fL
  RBC: 4.49 M/uL
  LDH: 372.3 U/L
  Total bilirubin: 1.13 mg/dL
